Test results as given in patent US5525596A, “Absorption enhancer/solubilizer combination for improved bioavailability of a zwitterionic compound” (Merck & Co., Inc., priority 1994, dated 1996).
Where two headings read alike, the source gives them in different places.

Tests used:
[1] = Biliary excretion in rats; format: in vivo, rat
Description: (§1) Solutions of palmitoyl carnitine, β-cyclodextrin and an [R-(R*,R*)]-3-[(2-hydroxypropyl)amino]-3-methyl-N-[2,3,4,5-tetrahydro-2-oxo-1-[[2'-(H-tetrazol-5-yl)[1,1'-biphenyl]-4-yl]methyl]-1H-1-benzazepin-3-yl]butanamide having the following structure: [drawing 1] hereinafter referred to as [R-(R*,R*)]-3-[(2-hydroxypropyl)amino]-3-methyl-N-[2,3,4,5-tetrahydro-2-oxo-1-[[2'-(H-tetrazol-5-yl)[1,1'-biphenyl]-4-yl]methyl]-1H-1-benzazepin-3-yl]butanamide were prepared such that [R-(R*,R*)]-3-[(2-hydroxypropyl)amino]-3-methyl-N-[2,3,4,5-tetrahydro-2-oxo-1-[[2'-(H-tetrazol-5-yl)[1,1'-biphenyl]-4-yl]methyl]-1H-1-benzazepin-3-yl]butanamide was maintained at 2 mg/ml. All solutions were prepared in Krebs-Henseleit buffer at Ph 7.4. The solutions were administered to ligated sections of the jejunum of anesthetized rats. […] The bile was collected in 15 minute intervals for 3.5 hours and analyzed for [R-(R*,R*)]-3-[(2-hydroxypropyl)amino]-3-methyl-N-[2,3,4,5-tetrahydro-2-oxo-1-[[2'-(H-tetrazol-5-yl)[1,1'-biphenyl]-4-yl]methyl]-1H-1-benzazepin-3-yl]butanamide content. From the bile volume, the total amount of drug eliminated could be calculated. After an IV dose, 92% of the drug is found in the bile. Therefore all value were divided by 0.92 to give true absorption values. These values are given in table 1, along with standard deviations which were observed.

[2] = Absorption of solid formulations (powders, tablets, beads) from unligated sections of the jejunum of anesthetized rats (bile collection); format: in vivo; conditions: rat
Description: as §1
Powders were prepared so as to contain in each dose, 2 mg/kg of [R-(R*,R*)]-3-[(2-hydroxypropyl)amino]-3-methyl-N-[2,3,4,5-tetrahydro-2-oxo-1-[[2'-(H-tetrazol-5-yl)[1,1'-biphenyl]-4-yl]methyl]-1H-1-benzazepin-3-yl]butanamide, 0-10 mg/kg palmitoyl carnitine chloride, 0-15 mg/kg β-cyclodextrin and microcrystalline cellulose. The powders were administered to unligated sections of the jujunum of anesthetized rats. Bile was collected and the absorption of [R-(R*,R*)]-3-[(2-hydroxypropyl)amino]-3-methyl-N-[2,3,4,5-tetrahydro-2-oxo-1-[[2'-(H-tetrazol-5-yl)[1,1'-biphenyl]-4-yl]methyl]-1H-1-benzazepin-3-yl]butanamide was determined as in Example 1. The results of these studies are provided in Table 2, along with observed standard deviations.
Lyophilized preparations of [R-(R*,R*)]-3-[(2-hydroxypropyl)amino]-3-methyl-N-[2,3,4,5-tetrahydro-2-oxo-1-[[2'-(H-tetrazol-5-yl)[1,1'-biphenyl]-4-yl]methyl]-1H-1-benzazepin-3-yl]butanamide were prepared from solutions containing 2 mg/ml of [R-(R*,R*)]-3-[(2-hydroxypropyl)amino]-3-methyl-N-[2,3,4,5-tetrahydro-2-oxo-1-[[2'-(H-tetrazol-5-yl)[1,1'-biphenyl]-4-yl]methyl]-1H-1-benzazepin-3-yl]butanamide and 15 mg/ml of β-cyclodextrin or 20 mg/ml hydroxypropyl-β-cyclodextrin. The lyophilized preparations were mixed with palmitoyl carnitine chloride and microcrystalline cellulose and compressed into tablets. The tablets contained 2 mg/kg of [R-(R*,R*)]-3-[(2-hydroxypropyl)amino]-3 -methyl -N-[2,3,4,5,-tetrahydro-2-oxo-1-[[2'-(H-tetrazol-5-yl)[1,1'biphenyl]-4-yl]methyl-1H1-benzazepin-3-yl]butanamide and 10 mg/kg palmitoyl carnitine chloride. The tablets were administered to the unligated sections of the jejunum of anesthetized rats. Bile was collected and the absorption of [R-(R*,R*)]-3-[(2-hydroxypropyl) amino]-3 -methyl -N- [2,3,4,5 -tetrahydro-2-oxo-1-[[2'-(H-tetrazol-5-yl)[1,1'-biphenyl]-4-yl]methyl]-1H- 1-benzazepin-3-yl]butanamide determined as in Example 1. The percentage absorption of [R-(R*,R*)]-3-[(2-hydroxypropyl)amino]-3-methyl-N-[2,3,4,5-tetrahydro-2-oxo-1-[[2'-(H-tetrazol-5-yl)[1,1'-biphenyl]-4-yl]methyl]-1H-1-benzazepin-3-yl]butanamide from the lyophilized formulation containing β-cyclodextrinwas 28.2±18.3 and from the hydroxpropyl-β-cyclodextrin, 7.5±6.2.
Fifteen parts of water were added to a mixture of [R-(R*,R*)]-3-[(2-hydroxypropyl)amino]-3-methyl-N-[2,3,4,5-tetrahydro-2-oxo-1-[[2'-(H-tetrazol-5-yl)[1,1'-biphenyl]-4-methyl]-1H-1-benzazepin-3-yl]butanamide, β-cyclodextrin, palmitoyl carnitine chloride, micro-crystalline cellulose and starct (2:15:10:15:10). The preparation was extruded through a screen ([…]) and spheronized. […]

[3] = Plasma/blood exposure after administration of compressed tablets to the duodenum of dogs; format: in vivo, dog; conditions: tablet, 1 mg/kg drug, 10 mg/kg palmitoyl carnitine chloride, four hours
Description: Compressed tablets were prepared with and without 112 mg β-cyclodextrin (7.5 mg/kg), containing 15 mg of [R-(R*,R*)]-3-[(2-hydroxypropyl)amino]-3-methyl-N-[2,3,4,5-tetrahydro-2-oxo-1[[2'-(H-tetrazol-5-yl)[1,1'-biphenyl]-4-yl]methyl]-1H-1-benzazepin-3-yl]butanamide (1 mg/kg) and 150 mg palmitoyl carnitine chloride (10 mg/kg) in a tablet matrix containing 203 mg microcrystalline cellulose, 100 mg lactose, 20 mg corn starch and 2 mg magnesium stearate. The tablets were administered to the duodenum of dogs through a surgically prepared fistual. Serial blood samples were taken from the dogs for four hours after dosing and analyzed for [R-(R*,R*)]-3-[(2-hydroxypropyl)amino]-3-methyl-N -[2,3,4,5-tetra-hydro-2-oxo-1-[[2'-(H-tetrazol-5-yl)[1,1'-biphenyl]-4-yl]methyl]-1H-1-benzazepin-3-yl]butanamide. The results given as resulting area under [R-(R*,R*)]-3-[(2-hydroxy-propyl)amino] -3-methyl-N-[2,3,4,5-tetrahydro-2-oxo- 1-[[2'-(H-tetrazol-5-yl)[1,1'-biphenyl]-4-yl]methyl]-1H-1-benzazepin-3-yl]butanamide concentration-time curve ± standard deviations, are 361±168 ng min/ml in the absence of β-cyclodextrin and […] in the presence of β-cyclodextrin.

[4] = Jejunal absorption of drug solutions from ligated sections of the jejunum of anesthetized rats (bile collection); format: in vivo; conditions: rat, pH 7.4, solution 2 mg/ml drug, read-out: % of Dose Absorbed Relative to IV (+/- s.d.)
Description: as §1

dose excreted ([1]; rat, bile, after an IV dose, read-out: drug found in the bile): 92% | Fa ([2]; 2 mg/kg, powder, 2 mg/kg drug, palmitoyl carnitine chloride 0 mg/kg, β-cyclodextrin 0 mg/kg, read-out: absorption determined as in Example 1 (± standard deviation)): 0.18 ± 0.26% | Fa ([2]; 2 mg/kg, powder, 2 mg/kg drug, palmitoyl carnitine chloride 10 mg/kg, β-cyclodextrin 0 mg/kg, read-out: absorption determined as in Example 1 (± standard deviation)): 3.3 ± 1.9% | Fa ([2]; 2 mg/kg, powder, 2 mg/kg drug, palmitoyl carnitine chloride 10 mg/kg, β-cyclodextrin 7.5 mg/kg, read-out: absorption determined as in Example 1 (± standard deviation)): 8.9 ± 7.6% | Fa ([2]; 2 mg/kg, powder, 2 mg/kg drug, palmitoyl carnitine chloride 10 mg/kg, β-cyclodextrin 15 mg/kg, read-out: absorption determined as in Example 1 (± standard deviation)): 14.8 ± 9.8% | Fa ([2]; 2 mg/kg, tablet of lyophilized formulation containing β-cyclodextrin (15 mg/ml in solution), 2 mg/kg drug, 10 mg/kg palmitoyl carnitine chloride, read-out: percentage absorption): 28.2 ± 18.3% | Fa ([2]; spheronized beads, drug:β-cyclodextrin:palmitoyl carnitine chloride:microcrystalline cellulose:starch 2:15:10:15:10, read-out: absorption): 8.8% | Fa ([2]; tablet of lyophilized formulation containing hydroxypropyl-β-cyclodextrin (20 mg/ml in solution), 2 mg/kg drug, 10 mg/kg palmitoyl carnitine chloride, read-out: percentage absorption): 7.5 ± 6.2% | AUC at 4 h ([3]; dog, blood, absence of β-cyclodextrin, read-out: area under concentration-time curve ± standard deviations (converted)): 6.02 ng·h/mL | area under concentration-time curve ± standard deviations ([3]; presence of β-cyclodextrin (7.5 mg/kg)): 19.8 ± 8.18 ng·h/mL | Fa at 3.5 h ([4]; palmitoyl carnitine chloride 0 mg/kg, β-cyclodextrin 0 mg/kg): 4.98 ± 5.67% | Fa at 3.5 h ([4]; palmitoyl carnitine chloride 0 mg/kg, β-cyclodextrin 7.5 mg/kg): 3.1 ± 1.59% | Fa at 3.5 h ([4]; palmitoyl carnitine chloride 0 mg/kg, β-cyclodextrin 15 mg/kg): 12 ± 7.23% | Fa at 3.5 h ([4]; palmitoyl carnitine chloride 5 mg/kg, β-cyclodextrin 0 mg/kg): 11.9 ± 2.6% | Fa at 3.5 h ([4]; palmitoyl carnitine chloride 5 mg/kg, β-cyclodextrin 7.5 mg/kg): 14 ± 5.4% | Fa at 3.5 h ([4]; palmitoyl carnitine chloride 5 mg/kg, β-cyclodextrin 15 mg/kg): 20.4 ± 15.2% | Fa at 3.5 h ([4]; palmitoyl carnitine chloride 10 mg/kg, β-cyclodextrin 0 mg/kg): 22.6 ± 13.5% | Fa at 3.5 h ([4]; palmitoyl carnitine chloride 10 mg/kg, β-cyclodextrin 7.5 mg/kg): 29.6 ± 8.2% | Fa at 3.5 h ([4]; palmitoyl carnitine chloride 10 mg/kg, β-cyclodextrin 15 mg/kg): 49.3 ± 13.4%
Compound: C[C@@H](O)CNC(C)(C)CC(=O)N[C@@H]1CCc2ccccc2N(Cc2ccc(-c3ccccc3-c3nnn[nH]3)cc2)C1=O [[R-(R*,R*)]-3-[(2-hydroxypropyl)amino]-3-methyl-N-[2,3,4,5-tetrahydro-2-oxo-1-[[2'-(H-tetrazol-5-yl)[1,1'-biphenyl]-4-yl]methyl]-1H-1-benzazepin-3-yl]butanamide]
route of excretion [1]: excreted almost exclusively unchanged in the bile
